# Patent publication US20060264347A1, “Antimicrobial composition” (priority 2005, published 2006)
# What was measured:
# C. albican = test: In vitro antimicrobial efficacy, viable plate count after 24 hr culture; type: cell-based; conditions: 37° C. 24 hr, inoculum 10^6 CFU/ml
# Experimental: (§1) The synergistic antimicrobial efficacy of the LAE and diiodomethyl-p-tolylsulfone ([…]) antimicrobial composition is illustrated by the results shown in Tables 1 and 2, and was determined by the following protocol. […] Sequential dilutions of the above two stock solutions were then prepared in sterile saline. […] Controls contained similar amounts of saline in the test culture with no LAE or […]. The test cultures were incubated at 37° C. for 24 hr, the total viable bacteria were numerated by plate count on Trypticase® soy agar (BBL) containing inactivating agent. The plates were incubated at 37° C. for 48 hr and reported as colony forming unit/ml (CFU/ml).
# E. coli [1] = test: as above; type: cell-based; conditions: 37° C. 24 hr, inoculum 10^6 CFU/ml
# Experimental: as §1
# E. faecium = test: as above; type: cell-based; conditions: 37° C. 24 hr, inoculum 10^6 CFU/ml
# Experimental: as §1
# P. aeruginosa = test: as above; type: cell-based; conditions: 37° C. 24 hr, inoculum 10^6 CFU/ml
# Experimental: as §1
# S. aureus [2] = test: as above; type: cell-based; conditions: 37° C. 24 hr, inoculum 10^6 CFU/ml
# Experimental: as §1
# E. coli [3] = test: Zone of inhibition assay of coated sutures; type: cell-based; conditions: coated 2-0 polyglactin 910 suture, 37° C. 48 hr
# Experimental: (§2) A series of USP standard size 2-0 uncoated polyglactin 910 sutures were coated with coating compositions containing LAE. LAE stock solution was made in ethanol at the concentration of 10%. The coating solutions were made by dissolving a L(−)lactide/glycolide copolymer containing 65 mole % lactide and 35 mole % glycolide (4.5%) and calcium stearate (4.5%) in ethyl acetate. Then, the LAE stock solution was added to the coating solution at sequential concentrations and mixed thoroughly. The sutures were hand coated by dipping into the coating solution containing antimicrobial composition and then air dried at room temperature for 8 hr. The antimicrobial efficacy was evaluated by zone of inhibition assay, in which the sutures were cut into a 5 cm section and inoculated with about 10^5 cfu/suture in a Petri dish, a portion of 20 ml of TSA tempered at 47° C. was added into the Petri dish. The inoculum was mix thoroughly with the medium and the suture was placed in the middle of the plate. The inoculated plates were incubated at 37° C. for 48 hr and then the zone of inhibition was measured with a digital caliper.
# as §2, with “DIMPTS. DIMPTS” for “LAE. LAE”, “DIMPTS” for “LAE”
# (§3) A series of USP standard size 2-0 uncoated polyglactin 910 sutures were coated with coating compositions containing the combinations of LAE and DIMPTS. DIMPTS and LAE stock solutions were made in ethanol at concentration of 10%. The coating solutions were made by dissolving a L(−)lactide/glycolide copolymer containing 65 mole % lactide and 35 mole % glycolide (4.5%) and calcium stearate (4.5%) in ethyl acetate. Then, the DIMPTS and LAE stock solutions were added to the coating solution at sequential concentrations and mixed thoroughly. The sutures were hand coated by dipping into the coating solution containing antimicrobial composition and then air dried at room temperature for 8 hr. The antimicrobial efficacy and synergistic effect were evaluated by zone of inhibition assay, in which the sutures were cut into a 5 cm section and inoculated with about 10^5 cfu/suture in a Petri dish, a portion of 20 ml of TSA tempered at 47° C. was added into the Petri dish. The inoculum was mix thoroughly with the medium and the suture was placed in the middle of the plate. The inoculated plates were incubated at 37° C. for 48 hr and then the zone of inhibition was measured with a digital caliper.
# S. aureus [4] = test: Zone of inhibition assay of coated sutures; type: cell-based; conditions: coated 2-0 polyglactin 910 suture, 37° C. 48 hr
# Experimental: as §2
# (§4) A series of USP standard size 2-0 uncoated polyglactin 910 sutures were coated with coating compositions containing DIMPTS. DIMPTS stock solution was made in ethanol at the concentration of 10%. The coating solutions were made by dissolving a L(−)lactide/glycolide copolymer containing 65 mole % lactide and 35 mole % glycolide (4.5%) and calcium stearate (4.5%) in ethyl acetate. Then, the DIMPTS stock solution was added to the coating solution at sequential concentrations and mixed thoroughly. The sutures were hand coated by dipping into the coating solution containing antimicrobial composition and then air dried at room temperature for 8 hr. The antimicrobial efficacy was evaluated by zone of inhibition assay, in which the sutures were cut into a 5 cm section and inoculated with about 10^5 cfu/suture in a Petri dish, a portion of 20 ml of TSA tempered at 47° C. was added into the Petri dish. The inoculum was mix thoroughly with the medium and the suture was placed in the middle of the plate. The inoculated plates were incubated at 37° C. for 48 hr and then the zone of inhibition was measured with a digital caliper.
# as §3
# C. albicans = test: Zone of inhibition assay of coated sutures; type: cell-based; conditions: coated 2-0 polyglactin 910 suture, 37° C. 48 hr
# Experimental: as §2, §4
# [5] = rats; cited from earlier work
# [6] = animals and humans; cited from earlier work
smiles,measurement,setting,value
"Cc1ccc(S(=O)(=O)C(I)I)cc1 [DIMPTS, diiodomethyl-p-tolylsulfone]",CFU/ml,C. albican; 0.5 ppm,1 × 10^8 CFU/ml
same,CFU/ml,E. coli [1]; 10 ppm,1.4 × 10^9 CFU/ml
same,CFU/ml,E. coli [1]; 200 ppm,1.1 × 10^5 CFU/ml
same,CFU/ml,E. faecium; 0.5 ppm,6 × 10^8 CFU/ml
same,CFU/ml,E. faecium; 5 ppm,3 × 10^8 CFU/ml
same,CFU/ml,P. aeruginosa; 10 ppm,1.0 × 10^9 CFU/ml
same,CFU/ml,P. aeruginosa; 200 ppm,4 × 10^8 CFU/ml
same,CFU/ml,S. aureus [2]; 0.5 ppm,1.2 × 10^9 CFU/ml
same,CFU/ml,S. aureus [2]; 5 ppm,2.4 × 10^6 CFU/ml
same,Zone of inhibition (mm),E. coli [3]; 0.1% in coating solution,0 mm
same,Zone of inhibition (mm),E. coli [3]; 0.5% in coating solution,0 mm
same,Zone of inhibition (mm),E. coli [3]; 1% in coating solution,1.0 mm
same,Zone of inhibition (mm),S. aureus [4]; 0.1% in coating solution,0 mm
same,Zone of inhibition (mm),S. aureus [4]; 0.5% in coating solution,3.0 mm
same,Zone of inhibition (mm),S. aureus [4]; 1% in coating solution,4.3 mm
same,Zone of inhibition (mm),C. albicans; 0.1% in coating solution,3.3 mm
same,Zone of inhibition (mm),C. albicans; 0.5% in coating solution,3.6 mm
same,Zone of inhibition (mm),C. albicans; 1% in coating solution,8.4 mm
"CCCCCCCCCCCC(=O)N[C@@H](CCCN=C(N)N)C(=O)OCC.Cl [LAE, ethyl ester of the lauramide of the arginine monohydrochloride]",CFU/ml,C. albican; 10 ppm,6 × 10^7 CFU/ml
same,CFU/ml,E. coli [1]; 10 ppm,1.1 × 10^9 CFU/ml
same,CFU/ml,E. faecium; 10 ppm,5 × 10^7 CFU/ml
same,CFU/ml,P. aeruginosa; 10 ppm,1.2 × 10^9 CFU/ml
same,CFU/ml,S. aureus [2]; 10 ppm,1.1 × 10^9 CFU/ml
same,Zone of inhibition (mm),E. coli [3]; 0.5% in coating solution,0 mm
same,Zone of inhibition (mm),E. coli [3]; 1% in coating solution,1.0 mm
same,Zone of inhibition (mm),E. coli [3]; 2% in coating solution,2.0 mm
same,Zone of inhibition (mm),S. aureus [4]; 0.5% in coating solution,0 mm
same,Zone of inhibition (mm),S. aureus [4]; 1% in coating solution,1.5 mm
same,Zone of inhibition (mm),S. aureus [4]; 2% in coating solution,3.2 mm
same,Zone of inhibition (mm),C. albicans; 0.5% in coating solution,0 mm
same,Zone of inhibition (mm),C. albicans; 1% in coating solution,2.3 mm
same,Zone of inhibition (mm),C. albicans; 2% in coating solution,3.5 mm
same,absorption and metabolism,[5],fast absorption and metabolism into naturally-occurring amino acids and the lauric acid
same,toxicity,[6],completely harmless
